Data: US6846678B2, “Gamma sterilized buffer solutions for pH measurement” (Terumo Cardiovascular Systems, Co.-Tustin, priority 2002, dated 2005)

Assays:
[1] = tested on: six different organisms; conditions: over eight weeks, unsterile buffer
Description: We tested the Buffers according to USP protocol for “Antimicrobial Preservatives Effectiveness” (United States Pharmacopeia, Volume XXIV, Microbiological Tests, Section (51) Antimicrobial Effectiveness Testing, pp. 1809-11, Official Jan. 1, 2000).

[2] = Effect of gamma sterilization (25-35 kGy) on preservatives in buffer; assay type: physicochemical; conditions: for Result post-gamma sterilization: gamma sterilization 25-35 kGy
Description: In a preferred embodiment, sterilization is performed by use of a gamma irradiation system having a Cobalt-60 source. The system used in the examples and data presented below is a dual source (i.e. two source racks), affording continuous irradiation and wet storage. The sterilization range was 25-35 kGy, set by adjusting the time of exposure to a constant radiation source. All sterilization dose ranges were confirmed by dosimeters.
Cf. Table 3. We examined a variety of preservatives for use in this buffer.

| Compound | counts for five of the organisms [1] | log reduction for the sixth organism [1] [log] | Result post-gamma sterilization [2] | effect on the final buffer formulation with regard to pH level, stability, and cosmetic factors ([2]; gamma sterilization cycle) |
| --- | --- | --- | --- | --- |
| CC(C)(C)CC(C)(C)c1ccc(OCCOCC[N+](C)(C)Cc2ccccc2)cc1 [Benzethonium chloride] | no counts | > 3 | Acceptable | minimal effect |
| N=C(NCCCCCCNC(=N)NC(=N)Nc1ccc(Cl)cc1)NC(=N)Nc1ccc(Cl)cc1 [Chlorohexidine] | – | – | Precipitated | – |
| Cl/C=C\C[N+]12CN3CN(CN(C3)C1)C2.[Cl-] [Dowicil 200] | – | – | Acidified, drifted | – |
| O=C1C(N(CO)C(=O)NCO)N(CO)C(=O)N1CO (stereo not shown) [Germall II] | – | – | Strong acidification, evolved CO2 | – |
| COC(=O)c1ccc(O)cc1 [Methyl paraben] | – | – | Acidified | – |
| CCCOC(=O)c1ccc(O)cc1 [Propyl paraben] | – | – | Precipitated | – |
| Benzalkonium chloride | – | – | Precipitated | – |
